Experimental data reported in patent publication US20250171753A1, “PEPTIDE AND USE THEREOF IN THE PREVENTION OF THERAPY-RELATED LEUKEMIA” (UNIVERSITÄT ULM, priority 2022, published 2025).
Where no end group is shown, it is not given here.

Tests used:
K562/MLL cells = test: Cell survival of K562/MLL cells by FSC/SSC gating in FACS; type: cell-based; conditions: for toxicity of the peptide in K562/MLL cells: K562/MLL nucleofected with different peptide concentrations, 2 μM doxorubicin; for cell survival / effect of peptide on cell survival after doxorubicin treatment: 2 μM doxorubicin 4 h; for cell survival: 72 h; for toxic effects toward leukemia cells (summary statement): leukemia cells after doxorubicin treatment; for effect of peptide on cell survival after doxorubicin treatment: K562/MLL nucleofected with 0-600 μg peptide per 1×10^6 cells
Protocol: (§1) K562/MLL cells were divided 1:2 before the start of the experiment and transfected with the plasmid (2×10^6 cells) or nucleofected with the peptide (1×10^6 cells) on the second day. After 24 h, the cells were then treated with 2 μM doxorubicin (Uniklinik Ulm, Germany) and after 4 h incubation, the cells were centrifuged, the supernatant discarded and the cells taken up in 2 ml PBS (Gibco/Thermo Fisher Scientific). After centrifugation again, the supernatant was discarded and the cells were seeded in 2 ml of new culture medium for 72 h.
Use of the fluorescence-based assay system for recombination measurements with K562/MLL or HeLa/MLL cells with chromosomally integrated plasmid pHR-EGFP/3′EGFP-MLLbcr.fwd is described in detail in Ireno et al. 2014 and Gole et al. 2015, respectively. For the acquisition of recombination data, cells were harvested, pelleted, resuspended in PBS and then re-sedimented. The cell pellets were stored on ice and resuspended in PBS (mixed with 0.2% EDTA) only shortly before FACS measurement. This suspension was transferred to FACS tubes and the fluorescence of the cells was detected on the FACSCalibur™ (BD Biosciences, San Jose, California, USA). To achieve a separation between living and dead cells, the cell clouds were plotted linearly against FSC/SSC orientation in a dot plot diagram. Depending on cell size and granularity, the living cells were distinguished from cell debris and dead cells by placing a marker (gate) around the “living cell cloud”. Subsequently, the selected cell population was separated in another dot-plot diagram with FL-1/FL-2 alignment depending on their fluorescence properties (FL-1 for green fluorescence, FL-2 for orange intrinsic fluorescence). Depending on the approach, 150,000 to 1,000,000 living cells were analyzed. Recombination frequencies were determined from the proportion of green fluorescent cells in the living cell population.
K562/MLL cells were electroporated with these expression plasmids for the different Ku80 variants or the empty vector (control) and 24 h later treated for 4 h with the chemotherapeutic agent doxorubicin (2 μM). After washing the cells, they were cultured in fresh medium for a further 72 h. The subsequent detection of green fluorescent cells for analysis of recombination frequencies was achieved by FACS using a diagonal gate in a FL-1/FL-2 dot plot diagram. Living cells were pre-selected by FSC/SSC gating to distinguish between EGFP-positive and -negative within the living cells.
The peptides were introduced into K562/MLL cells by Nucleofector™ technology as described above. The cells were nucleofected with 0-600 μg peptide per 1×10^6 cells and treated with 2 μM doxorubicin for 4 h after 24 h. After washing, the cells were cultured for another 72 h in fresh medium. […] Subsequently, recombination frequencies were determined.
Cell survival was determined in parallel with the recombination measurements.

HeLa/MLL cells = test: Cell survival of HeLa/MLL cells by FSC/SSC gating in FACS; type: cell-based, human; conditions: HeLa/MLL nucleofected with peptide; 0.5 μM doxorubicin 4 h; 72 h
Protocol: HeLa/MLL cells (0.5×10^6) were nucleofected with the peptide on the first day and split into three 6-wells for further cultivation. On the second day, the cells were treated with 0.5 μM doxorubicin for 4 h. […]. Afterwards, the medium was removed, the cells were washed with 2 ml PBS and 2 ml new medium was added. For FACS measurements, the cells were washed with PBS after 72 h of culture, 200 μl of trypsin (PAN Biotech, Aidenbach, Germany) was added and the reaction was stopped with medium. Genomic DNA was isolated without recultivation after doxorubicin treatment.
Use of the fluorescence-based assay system for recombination measurements with K562/MLL or HeLa/MLL cells with chromosomally integrated plasmid pHR-EGFP/3′EGFP-MLLbcr.fwd is described in detail in Ireno et al. 2014 and Gole et al. 2015, respectively. […] This suspension was transferred to FACS tubes and the fluorescence of the cells was detected on the FACSCalibur™ (BD Biosciences, San Jose, California, USA). […] Subsequently, the selected cell population was separated in another dot-plot diagram with FL-1/FL-2 alignment depending on their fluorescence properties (FL-1 for green fluorescence, FL-2 for orange intrinsic fluorescence). Depending on the approach, 150,000 to 1,000,000 living cells were analyzed. […]

[1] = test system: MLLbcr rearrangements in K562/MLL cells; test: Fluorescence-based (EGFP reconstitution) recombination assay for MLLbcr rearrangements in K562/MLL cells after doxorubicin; type: cell-based, human; conditions: expression plasmid electroporated into K562/MLL; 2 μM doxorubicin 4 h after 24 h; 72 h culture; vs empty vector control set to 100%
Protocol: as §1
Use of the fluorescence-based assay system for recombination measurements with K562/MLL or HeLa/MLL cells with chromosomally integrated plasmid pHR-EGFP/3′EGFP-MLLbcr.fwd is described in detail in Ireno et al. 2014 and Gole et al. 2015, respectively. For the acquisition of recombination data, cells were harvested, pelleted, resuspended in PBS and then re-sedimented. The cell pellets were stored on ice and resuspended in PBS (mixed with 0.2% EDTA) only shortly before FACS measurement. This suspension was transferred to FACS tubes and the fluorescence of the cells was detected on the FACSCalibur™ (BD Biosciences, San Jose, California, USA). To achieve a separation between living and dead cells, the cell clouds were plotted linearly against FSC/SSC orientation in a dot plot diagram.

[2] = K562/MLL nucleofected with 100 μg peptide
[3] = K562/MLL nucleofected with 50 μg peptide

Molecule: ASFEEASNQLINHIEQFLDTNETPYFMKSI [Ku4]
- toxicity of the peptide in K562/MLL cells (K562/MLL cells): caused toxicities
- reduction of cell survival after doxorubicin treatment to (K562/MLL cells; K562/MLL nucleofected with ≥300 μg peptide): ≥ half

Molecule: VDSTTIEKSIAEVAEEQESILKKVAGGT [scrambled peptide, reference compound]
- cell survival (K562/MLL cells; [2]): not affected

Molecule: EIVVQDGITLITKAEASGSSVTAEEAKK [Ku3 mut1, reference compound]
- cell survival (K562/MLL cells; [3]): not affected

Molecule: COc1cccc2c1C(=O)c1c(O)c3c(c(O)c1C2=O)C[C@@](O)(C(=O)CO)C[C@@H]3O[C@H]1C[C@H](N)[C@H](O)[C@H](C)O1 [doxorubicin, reference compound]
- cell survival after doxorubicin treatment (K562/MLL cells; human, 4 h, 2 μM): 70-80%

Molecule: ITKEEASGSSVTAEEAKKFLA [SEQ ID No. 4]
- toxic effects toward leukemia cells (summary statement) (K562/MLL cells): without exhibiting toxic effects

Molecule: RVLVKQKKASFEEASNQLINHIEQFL [Ku2]
- reduction of cell survival after doxorubicin treatment to (K562/MLL cells; K562/MLL nucleofected with 200-400 μg peptide): ≥ half
- toxicity of the peptide in K562/MLL cells (K562/MLL cells): caused toxicities

Molecule: ITKEEASGSSVTAEEAKKFLAG [Ku1]
- effect of peptide on cell survival after doxorubicin treatment (K562/MLL cells): did not affect cell survival

Molecule: CC[C@H](C)[C@H](NC(=O)CNC(=O)[C@H](CC(=O)O)NC(=O)[C@H](CCC(N)=O)NC(=O)[C@@H](NC(=O)[C@@H](NC(=O)[C@@H](NC(=O)[C@@H](N)CCC(=O)O)[C@@H](C)CC)C(C)C)C(C)C)C(=O)N[C@H](C(=O)N[C@@H](CC(C)C)C(=O)N[C@H](C(=O)N[C@H](C(=O)N[C@@H](CCCCN)C(=O)N[C@@H](CCC(=O)O)C(=O)N[C@@H](CCC(=O)O)C(=O)N[C@@H](C)C(=O)N[C@@H](CO)C(=O)NCC(=O)N[C@@H](CO)C(=O)N[C@@H](CO)C(=O)N[C@H](C(=O)N[C@H](C(=O)N[C@@H](C)C(=O)N[C@@H](CCC(=O)O)C(=O)N[C@@H](CCC(=O)O)C(=O)N[C@@H](C)C(=O)N[C@@H](CCCCN)C(=O)N[C@@H](CCCCN)C(=O)O)[C@@H](C)O)C(C)C)[C@@H](C)O)[C@@H](C)CC)[C@@H](C)O [Ku3]
- effect on cell survival (HeLa/MLL cells): without affecting cell survival
- effect of peptide on cell survival after doxorubicin treatment (K562/MLL cells): not affected
- cell survival (K562/MLL cells; [3]): not affected
- cell survival (K562/MLL cells; [2]): not affected
- toxic effects toward leukemia cells (summary statement) (K562/MLL cells): without exhibiting toxic effects

B1: Ku80ct: Ku80 amino acids 592-709 fused behind the amino acids PTAKKLK of the nuclear localization signal, expressed from plasmid (protein, UniProt P13010 592-709, looked up, fragment)
chain: VNPAENFRVLVKQKKASFEEASNQLINHIEQFLDTNETPYFMKSIDCIRAFREEAIKFSEEQRFNNFLKALQEKVEIKQLNHFWEIVVQDGITLITKEEASGSSVTAEEAKKFLAPKD
modifications: N-terminal NLS peptide PTAKKLK
notes: Ku80 amino acids 592-709 fused behind the amino acids PTAKKLK of the nuclear localization signal, expressed from plasmid
- MLLbcr rearrangements (recombination frequency) lowered by [1]: 45%
